ChEMBL document CHEMBL3856238, “Synthesis of novel nicotinohydrazide and (1,3,4-oxadiazol-2-yl)-6-(trifluoromethyl)pyridine derivatives as potential anticancer agents” (Bioorg Med Chem Lett, 2016)

What was measured:
Type in all cases: functional, cell-based
[1] = Cytotoxicity against human HepG2 cells assessed as cell growth inhibition by MTT assay
[2] = Cytotoxicity against human MDA-MB-231 cells assessed as cell growth inhibition by MTT assay
[3] = Cytotoxicity against human HeLa cells assessed as cell growth inhibition by MTT assay
[4] = Cytotoxicity against human DU145 cells assessed as cell growth inhibition by MTT assay; settings: DU-145

Compound: COc1ccc(-c2nnc(-c3ccc(C(F)(F)F)nc3N)o2)cc1
- IC50 [1]: 11.2 µM
- IC50 [2]: 13.5 µM
- IC50 [3]: 14.8 µM
- IC50 [4]: 10.7 µM

Compound: CCc1nnc(-c2ccc(C(F)(F)F)nc2Nc2cc(OC)c(OC)c(OC)c2)o1
- IC50 [1]: 19.9 µM
- IC50 [2]: 20.5 µM
- IC50 [3]: 23.3 µM
- IC50 [4]: 22.1 µM

Compound: FC(F)(F)c1ccc(-c2nnc(-c3ccco3)o2)c(NCc2ccco2)n1
- IC50 [1]: 9.5 µM
- IC50 [2]: 8.7 µM
- IC50 [3]: 9.8 µM
- IC50 [4]: 8.2 µM

Compound: CCCc1nnc(-c2ccc(C(F)(F)F)nc2Nc2cccc(F)c2)o1
- IC50 [1]: 17.7 µM
- IC50 [2]: 13.5 µM
- IC50 [3]: 19.6 µM
- IC50 [4]: 18.9 µM

Compound: O=C(N/N=C/c1ccccc1)c1ccc(C(F)(F)F)nc1NCc1ccco1
- IC50 [1]: 32.2 µM
- IC50 [2]: 26.6 µM
- IC50 [3]: 31.4 µM
- IC50 [4]: 30.5 µM

Compound: CCc1nnc(-c2ccc(C(F)(F)F)nc2Nc2cccc(F)c2)o1
- IC50 [1]: 26.4 µM
- IC50 [2]: 18.7 µM
- IC50 [3]: 20.9 µM
- IC50 [4]: 22.2 µM

Compound: O=c1[nH]cc(F)c(=O)[nH]1 [FLUOROURACIL]
- IC50 [1]: 1.3 µM
- IC50 [2]: 1.8 µM
- IC50 [3]: 1.9 µM
- IC50 [4]: 1.6 µM
